Test results taken from US12544392B2, “Treatment of adenovirus infection or disease associated with adenovirus infection” (SymBio Pharmaceuticals Limited, priority 2023, dated 2026).
Entries after “also recorded” stand apart in the source; their conditions may differ.

Columns and labels:
[1] = PK of BCV in plasma with or without concomitant cyclosporine; assay type: in vivo, human; settings: for increase of AUCinf of BCV in plasma compared with BCV alone / increase of Cmax of BCV in plasma compared with BCV alone: healthy subjects
From the text: (§1) Subjects 101-12 of cohort 2, and 101-15, 101-18 and 110-06 of cohort 3 took cyclosporine, an immunosuppressive drug, during the treatment period (duration of treatment) of intravenous BCV. Prior PK studies in healthy subjects have shown a significant increase in plasma BCV exposure with concomitant intravenous infusion of BCV and cyclosporine. […] In view of the above, for the above patients taking cyclosporine, any of the doses indicated in 1.1.3 (cohorts 1-3) above is reduced to 60% for administration. Note that when cyclosporine is administered as BID (twice daily) oral or injectable form, the administration is conducted with an interval of 2 hours after the completion of intravenous BCV. In the case of continuous infusion of cyclosporine for 24 hours, no interval is needed.
Prior PK studies in healthy subjects have shown a significant increase in plasma BCV exposure with concomitant intravenous infusion of BCV and cyclosporine. […] In view of the above, for the above patients taking cyclosporine, any of the doses indicated in 4.1.3 (cohorts 4-6) above is reduced to 60% for administration. Note that when cyclosporine is administered as BID (twice daily) oral or injectable form, the administration is conducted with an interval of 2 hours after the completion of intravenous BCV. In the case of continuous infusion of cyclosporine for 24 hours, no interval is needed.

[2] = Human clinical study: BCV-related adverse events (NCI CTCAE version 5.0); assay type: in vivo
Protocol: The study duration is at least 9 weeks, based on a screening period of 1 week, a treatment period of at least 4 weeks, and post-treatment follow-up period of 30 days. In the screening, after informed consent has been obtained from the patients, a screening evaluation is conducted to determine eligibility for the study. On the first day of the first week of the treatment period, patients are assigned a dose based on the applicable cohort (see the section 1.1.3 Cohorts 1-3 above). The duration of treatment is a minimum of 4 weeks and a maximum of 14 weeks, and termination is based on the treatment stopping criteria as described below. For patients who, at the physician's discretion, are assessed as being at high risk for AdV infection/recurrence of disease, the treatment period may be extended for up to 10 weeks, even after the 4-week treatment period is completed, if the AdV is not detected by the two most recent consecutive assays with an interval of 3 days at least. All patients are followed up for 30 days after the last dosing. Adverse events is evaluated according to the National Cancer Institute Common Terminology Criteria for Adverse Events (NCI CTCAE) version 5.0 (grade 1-5). Based on the results of the review of safety data from cohort 1, a decision is made whether to initiate cohort 2. Likewise, the decision to initiate cohort 3 is based on the results of the review of safety data from cohort 2. Enrollment in a new cohort is terminated immediately if grade 3 or higher adverse events are observed in more than 25% of all subjects in the previous cohort.

[3] = system: adenovirus (AdV); assay: Human clinical study on treatment of AdV infectious disease: viral load of AdV in plasma by real-time qPCR; assay type: in vivo; settings: for time for the levels of viral load to reach below the LOD: overall
Protocol: A human clinical study on the treatment of adenovirus (AdV) infectious disease was conducted according to the following procedure.
Patients aged 2 months or older who have asymptomatic AdV infection or AdV disease, have an underlying immunocompromised state, and have AdV viremia at a high level, including hematopoietic stem cell transplant recipients before the immune reconstitution by the graft cells is achieved, organ transplant recipients on medication with an immunosuppressant, and patients with immunodeficiency syndrome (patients with 10,000 or more copies/ml in a sample, or patients with 1,000 or more copies/ml in two samples while the second viral load is greater than the first viral load).
The brincidofovir (BCV) infusion is a sterile aqueous solution containing 10 mg/mL BCV.
• Product name: Brincidofovir (BCV) • Dosage form: Solution for infusion • Unit dose: 10 mg/mL (1 mL per vial) • Route of administration: Intravenous (IV) infusion • Physical description: Clear, colorless solution in a sterile glass vial • Storage: Refrigerated (2-8° C.) • Dosing: Continuous IV drip infusion administered over a period of 2 hours twice weekly (on Days 1 and 4) 1.1.3 Dose • Cohort 1:0.2 mg/kg (if body weight≥50 kg, 10 mg/dose), twice weekly • Cohort 2:0.3 mg/kg (if body weight≥50 kg, 15 mg/dose), twice weekly • Cohort 3:0.4 mg/kg (if body weight≥50 kg, 20 mg/dose), twice weekly 1.1.4 Drug Administration
The dose of BCV 10 mg/mL solution for infusion is prepared based on the patient's body weight.
Preparation: Using a sterile syringe and needle, transfer 1 mL of IV BCV solution from one vial into a 100-mL glucose 5% IV bag to make a diluted dosing solution. For more than 10 mg/dose, prepare one additional diluted dosing solution in the same procedure mentioned above. Gently invert the bag at least 5 times to mix. Note: No vigorous shaking of the solution in a vial or the diluted dosing solution in a bag.
Administer the appropriate volume of diluted dosing solution based on the patient's body weight. Each dose is administered intravenously at a constant rate over 2 hours. Upon completion of the administration, the IV line is flushed with glucose 5% or dextrose 5% to ensure the IV line has been cleared of all active drug. If required per institutional practice, the flush of glucose 5% or dextrose 5% may be followed by a flush with normal saline. Diluted dosing solution should be prepared at the time of use in principle and should not be prepared the day before.
as §1
The study duration is at least 9 weeks, based on a screening period of 1 week, a treatment period of at least 4 weeks, and post-treatment follow-up period of 30 days. In the screening, after informed consent has been obtained from the patients, a screening evaluation is conducted to determine eligibility for the study. On the first day of the first week of the treatment period, patients are assigned a dose based on the applicable cohort (see the section 1.1.3 Cohorts 1-3 above). The duration of treatment is a minimum of 4 weeks and a maximum of 14 weeks, and termination is based on the treatment stopping criteria as described below. […]

[4] = BCV IV and cyclosporine administered simultaneously
[5] = cyclosporine administered at 2 hours after the end of intravenous BCV infusion over 2 hours
[6] = cohort 1: 0.2 mg/kg IV twice weekly
[7] = cohort 2: 0.3 mg/kg IV twice weekly
[8] = cohort 3: 0.4 mg/kg IV twice weekly
[9] = cohort 3: 0.4 mg/kg IV twice weekly, of 10 cases

CCCCCCCCCCCCCCCCOCCCOP(=O)(O)CO[C@H](CO)Cn1ccc(N)nc1=O [BCV, [(2S)-1-(4-amino-2-oxopyrimidin-1-yl)-3-hydroxypropan-2-yl]oxymethyl-(3-hexadecoxypropoxy)phosphinic acid]
AUCinf and Cmax of BCV in plasma, cohort 3 patients versus healthy controls ([1]; BCV administered alone): substantially the same
increase of AUCinf of BCV in plasma compared with BCV alone [1, 4]: approximately 3.4 fold
increase of Cmax of BCV in plasma compared with BCV alone [1, 4]: ~2.3 fold
increase of AUCinf of BCV in plasma compared with BCV alone [1, 5]: approximately 1.8 fold
increase of Cmax of BCV in plasma compared with BCV alone [1, 5]: ~1.3 fold
effect of cyclosporine administration on the blood concentration of BCV ([1]; statement in the embodiments, no test described): does not affect
BCV-related adverse event, grade (relatedness) ([2]; cohort 1 (0.2 mg/kg IV twice weekly), patient 109-01, 0.2 mg/kg): elevated aspartate transaminase (AST)—grade 1 (probably); also recorded: elevated alanine transaminase (ALT)—grade 1 (probably); also recorded: elevated lactate dehydrogenase (LDH)—grade 1 (possibly)
BCV-related adverse event, grade (relatedness) ([2]; cohort 1 (0.2 mg/kg IV twice weekly), patient 110-01): diarrhea—grade 2 (possibly)
Grade 3 adverse events (number) [2, 6]: 0
BCV-related adverse event, grade (relatedness) ([2]; cohort 2 (0.3 mg/kg IV twice weekly), patient 101-09): diarrhea—grade 3 (possibly)
BCV-related adverse event, grade (relatedness) ([2]; cohort 2 (0.3 mg/kg IV twice weekly), patient 101-14): hypertransaminasemia—grade 3 (possibly)
BCV-related adverse event, grade (relatedness) ([2]; cohort 2 (0.3 mg/kg IV twice weekly), patient 109-03): nausea—grade 1 (possibly)
Grade 3 adverse events (number) [2, 7]: 2
BCV-related adverse event, grade (relatedness) ([2]; cohort 3 (0.4 mg/kg IV twice weekly), patient 102-02, 0.4 mg/kg): increased ALT—grade 3 (possibly); also recorded: increased AST—grade 3 (possibly)
BCV-related adverse event, grade (relatedness) ([2]; cohort 3 (0.4 mg/kg IV twice weekly), patient 109-04, 0.4 mg/kg): feeling of a racing heart—grade 1 (possibly); also recorded: nausea—grade 1 (possibly)
Grade 3 adverse events (number) [2, 8]: 1
patients in whom the levels of viral load of AdV reached below the LOD ([3]; cohort 1: 0.2 mg/kg (10 mg/dose if body weight ≥50 kg) IV twice weekly, plasma, LOD 25 copies/ml): two
cases with relapse among those that reached below the LOD [3, 6]: One
patients who died [3, 6]: one
patients in whom the levels of viral load of AdV reached below the LOD ([3]; cohort 2: 0.3 mg/kg (15 mg/dose if body weight ≥50 kg) IV twice weekly, plasma, LOD 25 copies/ml): 5 patients
patients who died [3, 7]: one
time for the levels of viral load to reach below the LOD ([3]; cohort 2: 0.3 mg/kg IV twice weekly, the 5 cases): longer time
cases in which the levels of viral load of AdV reached below the LOD ([3]; cohort 3: 0.4 mg/kg (20 mg/dose if body weight ≥50 kg) IV twice weekly, plasma, LOD 25 copies/ml, all cases): 10 cases
relapse or death [3, 8]: No patient relapsed or died
patients whose levels of viral load reached below the LOD within 4 weeks [3, 9]: 8 patients
remaining patients whose levels of viral load reached below the LOD at Week 5 and 6 [3, 9]: 2 patients
time for the levels of viral load to reach below the LOD ([3]; cohort 3: 0.4 mg/kg IV twice weekly, the 10 cases): shorter time
time at which the viral load of AdV was reduced to a level below the LOD ([3]; patient 110-05 in cohort 3 (0.4 mg/kg IV twice weekly)): 3 Week
